Values joined by “and” are separate entries in the source; they are usually repeats but may differ in a detail not shown here. Equal values may be shown once.
Assay: osmotic coefficient (dimensionless); mn = molality of the nth substance listed, in mol/kg
Conditions: 298.15 K, Liquid, isopiestic method

CCCCCC[n+]1ccc(N(C)C)cc1.F[B-](F)(F)F [4-(dimethylamino)-1-hexylpyridinium tetrafluoroborate] + CCO
Conditions	osmotic coefficient
m1 = 0	0.999
m1 = 0.3863	0.523
m1 = 0.4915	0.435
m1 = 0.6139	0.417
m1 = 0.7149	0.447
m1 = 0.7716	0.429
m1 = 1.225	0.413 and 0.431
m1 = 1.39	0.375
m1 = 1.495	0.39
m1 = 1.778	0.35
m1 = 1.799	0.409
m1 = 2.283	0.376
m1 = 2.753	0.378
m1 = 3.718	0.351
m1 = 4.128	0.37
m1 = 5.581	0.384

CCCC[n+]1ccc(N(C)C)cc1.F[B-](F)(F)F [4-(dimethylamino)-1-butylpyridinium tetrafluoroborate] + CCO
Conditions	osmotic coefficient
m1 = 0	1
m1 = 0.3225	0.606
m1 = 0.333	0.526
m1 = 0.3357	0.6
m1 = 0.3459	0.506
m1 = 0.4422	0.468
m1 = 0.4806	0.429 and 0.445
m1 = 0.4942	0.418
m1 = 0.5101	0.42 and 0.404
m1 = 0.6548	0.383
m1 = 0.7459	0.394
m1 = 0.8064	0.365
m1 = 0.9658	0.343
m1 = 1.075	0.327
m1 = 1.154	0.339
m1 = 1.195	0.318
m1 = 1.289	0.325
m1 = 1.393	0.322
m1 = 1.613	0.321
m1 = 1.945	0.304
m1 = 2.716	0.316
m1 = 3.676	0.336
m1 = 3.763	0.326
m1 = 5.468	0.283
m1 = 7.248	0.218

CCCCC[n+]1ccc(N(C)C)cc1.F[B-](F)(F)F [4-(dimethylamino)-1-pentylpyridinium tetrafluoroborate] + CCO
Conditions	osmotic coefficient
m1 = 0	0.999
m1 = 0.4148	0.513
m1 = 0.4808	0.455
m1 = 0.5469	0.468
m1 = 0.568	0.397
m1 = 0.6869	0.376
m1 = 0.8468	0.359
m1 = 0.9582	0.335
m1 = 1.291	0.38
m1 = 1.757	0.331
m1 = 1.899	0.327
m1 = 2.515	0.327
m1 = 4.304	0.283
m1 = 5.313	0.288
m1 = 7.334	0.301

Source: the NIST ThermoML archive (doi:10.1016/j.jct.2012.01.007)
